Measured values as given in paper PMC9064382 (RSC Advances, 2019).
pKi: −log10 of the molar value.

Key:
hOATP1B3 = target: T1, hOATP1B3 (Homo sapiens, UniProt Q9NPD5); assay: Uptake of aconitum alkaloids in hOATP1B3-transfected HEK293 cells vs mock; format: in vitro ADME; conditions: 10 μm, 2 min
T1 sequence (Q9NPD5 1-702): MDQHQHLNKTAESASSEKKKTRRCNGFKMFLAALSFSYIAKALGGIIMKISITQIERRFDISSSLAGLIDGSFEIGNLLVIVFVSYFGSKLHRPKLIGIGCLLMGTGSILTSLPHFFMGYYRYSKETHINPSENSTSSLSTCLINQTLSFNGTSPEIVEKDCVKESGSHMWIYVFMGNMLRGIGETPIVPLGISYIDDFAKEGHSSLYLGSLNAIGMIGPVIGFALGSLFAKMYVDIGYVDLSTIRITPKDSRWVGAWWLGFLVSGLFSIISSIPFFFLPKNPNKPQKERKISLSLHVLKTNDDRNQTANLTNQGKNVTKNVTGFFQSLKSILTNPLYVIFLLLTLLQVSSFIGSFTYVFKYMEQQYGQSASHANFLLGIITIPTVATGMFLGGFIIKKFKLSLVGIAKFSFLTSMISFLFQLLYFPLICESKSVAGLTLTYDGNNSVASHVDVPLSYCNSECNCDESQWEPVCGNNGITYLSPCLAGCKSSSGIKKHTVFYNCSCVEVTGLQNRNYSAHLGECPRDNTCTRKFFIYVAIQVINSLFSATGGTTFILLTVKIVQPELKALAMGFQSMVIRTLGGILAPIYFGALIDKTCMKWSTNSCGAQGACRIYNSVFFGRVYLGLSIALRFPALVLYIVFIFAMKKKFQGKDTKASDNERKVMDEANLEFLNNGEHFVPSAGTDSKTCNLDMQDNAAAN

hOCT1 = target: T2, hOCT1 (Homo sapiens, UniProt O15245); assay: Uptake of aconitum alkaloids in hOCT1-transfected cells vs mock; format: in vitro ADME; conditions: 10 μm, 5 min
T2 sequence (O15245 1-554): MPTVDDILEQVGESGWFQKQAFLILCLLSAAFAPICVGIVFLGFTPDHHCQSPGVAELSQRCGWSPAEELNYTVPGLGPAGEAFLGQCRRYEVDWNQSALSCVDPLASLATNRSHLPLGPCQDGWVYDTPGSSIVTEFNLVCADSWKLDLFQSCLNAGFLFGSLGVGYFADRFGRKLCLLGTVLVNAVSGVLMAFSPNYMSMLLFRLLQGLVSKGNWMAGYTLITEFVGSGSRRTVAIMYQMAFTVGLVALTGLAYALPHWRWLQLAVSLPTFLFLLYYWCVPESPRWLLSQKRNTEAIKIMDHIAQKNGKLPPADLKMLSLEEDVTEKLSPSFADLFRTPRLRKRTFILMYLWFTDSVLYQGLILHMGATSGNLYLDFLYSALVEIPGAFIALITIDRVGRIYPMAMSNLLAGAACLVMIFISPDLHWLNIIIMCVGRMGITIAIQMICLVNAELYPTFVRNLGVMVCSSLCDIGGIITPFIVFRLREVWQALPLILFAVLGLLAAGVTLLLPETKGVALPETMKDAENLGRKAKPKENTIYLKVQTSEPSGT

[1] = format: in vivo, Sprague-Dawley (SD) rats; conditions: aconitine 0.5 mg kg^−1 oral; pretreatment 15 min before; n = 6
[2] = format: in vivo, Sprague-Dawley (SD) rats; conditions: aconitine 0.5 mg kg^−1 oral; pretreatment 15 min before; n = 6; remark: listed apart in the source
OCT2 = conditions: read-out: Ki, competitive inhibition of OCT2; TEA probe substrate; cited from earlier work

CCN1C[C@]2(COC)[C@H](O)C[C@H](OC)[C@@]34[C@@H]5C[C@@]6(O)[C@H](OC(=O)c7ccccc7)[C@@H]5[C@@](OC(C)=O)([C@@H]([C@H](OC)[C@H]23)[C@@H]14)[C@@H](O)[C@@H]6OC [aconitine]
uptake in hOATP1B3-transfected cells, adjusted by protein concentration (hOATP1B3; HEK293-hOATP1B3): 344 pmol mg^−1 protein | concentration in hOATP1B3-transfected cells, fold of HEK293 mock cells (hOATP1B3; HEK293-hOATP1B3 vs mock): 1.35 fold | concentration in HEK293–hOCT1, fold higher than control (hOCT1): roughly 1.9 fold | AUC(0–2 h) of aconitine in rat liver [1]: 100.3 ± 8.9 ng/h/g | AUC(0–2 h) of aconitine in rat kidneys [2]: 60.5 ± 6.8 ng/h/g | pKi (OCT2): 3.84
